According to patent US5618837A, “PDGF antagonists III” (ZymoGenetics, Inc., priority 1995, dated 1997):

Key:
[1] = test system: PDGF-BB mitogenic activity on baboon smooth muscle cells; assay: Inhibition of PDGF-BB mitogenic activity on baboon smooth muscle cells ([3H] thymidine incorporation); assay type: cell-based
Method: Brefeldin A was analyzed for the ability to inhibit the mitogenic activity of PDGF on baboon smooth muscle cells. All mitogenesis assays performed on baboon vascular smooth muscle cells (BVSMCs) were done on primary cultures of cells between passages 13 and 20 in culture. The initial cultures were established from outgrowth of aortic tissue explants. Baboon smooth muscle cells were plated at approximately 20,000 cells per well, in DMEM supplemented with 10% fetal calf serum, into 24-well culture dishes. One day prior to use the culture media was removed, and 1 ml of Mito Media (Table 3) was added to each well to allow the cells to become quiescent. At the time of the experiment the cells were stimulated with PDGF-BB. […] 20X stock solutions were made for each of the PDGF concentrations by dilution in 10 mM acetic acid containing 0.25% albumin, and 50 μl of PDGF or dilution vehicle alone was added to the culture wells. To analyze the activity of Brefeldin A to neutralize PDGF-BB mitogenic activity, 1 ng/ml of PDGF was added to wells along with dilutions of Brefeldin A. The cells were incubated with the test samples for approximately 20 hours at 37° C. Fifty μl of a 20x stock solution was then added to each well to give a final concentration of 1 μCi/ml. The cells were incubated for 4 hours at 37° C., washed with PBS, then harvested with trypsin and counted for [^3 H] thymidine incorporation in a Wallac (Turku, Finland) Betaplate™ liquid scintillation counter. […] As part of this same experiment, the inhibitory potency of Brefeldin A was analyzed in the presence of heparin to determine if heparin is able to act in a combinatorial manner with Brefeldin A for inhibiting PDGF-BB mitogenic activity. Baboon smooth muscle cells were incubated in Brefeldin A with 1 ng/ml PDGF-BB in the presence of 0.5 U/ml of unfractionated heparin. The cells were pulse-labeled with [^3 H] thymidine as described above, and the level of [^3 H] thymidine incorporation was determined.

[2] = test system: 125I-PDGF-BB binding to rat SMCs; assay: Inhibition of 125I-PDGF-BB binding to rat smooth muscle cells; conditions: 4° C.; for % Control Binding: negative control = 100, 90 min; for 125I PDGF-BB Bound (CPM): specific cpm, nonspecific subtracted, negative control 10006
Method: Brefeldin A was analyzed for the ability to inhibit ^125 I-PDGF-BB binding to monolayers of rat SMCs. SMCs were plated at approximately 20,000 cells/well in 24-well culture dishes. The cells were used for assay 2-7 days after plating. The test compound was diluted in binding media (500 ml Hams F-12 (Gibco BRL), 12 ml 1M Hepes pH 7.4, 5 ml 100X PSN, 1 gm rabbit serum albumin (Sigma Chemical Co., St. Louis, Mo.) to the concentrations shown in Table 2, then added to the SMCs (1 ml/well) in triplicate. To the wells was then added 50 μl of a ^125 I-PDGF-BB binding stock solution. Binding media alone was used as the negative control, and the addition of 200 ng/ml of PDGF-BB was used to determine nonspecific binding for ^125 I-PDGF-BB. The cells were incubated for approximately 11/2 hours at 4° C., then washed with binding media to remove unbound ligand. The cells were then incubated with extraction buffer (20 mM Tris-HCl pH 8.0, 100 mM NaCl, 1 mM EDTA, 0.5% sodium deoxycholate, 10 mM NaI, 1% bovine serum albumin), and the extracts were harvested and counted in a gamma counter. The data are presented as specific cpm bound for ^125 I-PDGF-BB. Nonspecific binding, determined by the addition of 200 ng/ml of unlabeled PDGF-BB, was 853 cpm, and has been subtracted from the data presented.

[3] = test system: bFGF-induced SRE-luciferase expression in SWISS3T3 cells; assay: SRE-luciferase reporter antagonist assay, bFGF induction; assay type: cell-based; conditions: 2.0 ng/ml bFGF; SWISS3T3/KZ67-G1-6 cells; 5 hours at 37° C.
Method: (§1) Initial characterization of Brefeldin A as a non-peptide PDGF antagonist was made possible through an SRE-Luciferase high through-put assay system which identifies substances that are able to block expression of a serum response element (SRE)-luciferase reporter gene expressed in SWISS3T3 cells. […] The degree of antagonist specificity can be determined by comparing the resultant signal for the three growth factors (PDGF, bFGF, and EGF). […]
(§2) Folowing induction, luciferase activity was measured using a Promega luciferase assay kit (E1500; Promega Corp., Madison, Wis.) according to the assay kit protocol. […] The amount of luminescence (relative light units, RLU) was determined following a 1 second mix and a 1-3 integration of signal. Basal (uninduced) luciferase signal was substracted from all measurements,and the luciferase signal induced by test samples was expressed as a percentage of the signal from the controls. […]

[4] = test system: EGF-induced SRE-luciferase expression in SWISS3T3 cells; assay: SRE-luciferase reporter antagonist assay, EGF induction; assay type: cell-based; conditions: 4.5 ng/ml EGF; SWISS3T3/KZ67-G1-6 cells; 5 hours at 37° C.
Method: as §1, §2

CC1CCCC=CC2CC(O)CC2C(O)C=CC(=O)O1 (centres unmarked) [Brefeldin A, 1,6,7,8,9,11a,12,13,14,14a-Decahydro-1,13-dihydroxy-6-methyl-4H-cyclopent[f]oxacyclotridecin-4-one]
PDGF-BB mitogenic activity inhibition (in words) ([1]; 1 ng/ml PDGF-BB): inhibited by Brefeldin A in a dose dependent fashion | 3H Thymidine (CPM Incorporated), (+) 0.5 U/ml Heparin ([1]; 12.5 nM, 1 ng/ml PDGF-BB): 854 CPM | 3H Thymidine (CPM Incorporated), (-) Heparin ([1]; 12.5 nM, 1 ng/ml PDGF-BB): 1293 CPM | 3H Thymidine (CPM Incorporated), (+) 0.5 U/ml Heparin ([1]; 25 nM, 1 ng/ml PDGF-BB): 684 CPM | 3H Thymidine (CPM Incorporated), (-) Heparin ([1]; 25 nM, 1 ng/ml PDGF-BB): 798 CPM | 3H Thymidine (CPM Incorporated), (+) 0.5 U/ml Heparin ([1]; 50 nM, 1 ng/ml PDGF-BB): 44 CPM | 3H Thymidine (CPM Incorporated), (-) Heparin ([1]; 50 nM, 1 ng/ml PDGF-BB): 36 CPM | 3H Thymidine (CPM Incorporated), (+) 0.5 U/ml Heparin ([1]; 100 nM, 1 ng/ml PDGF-BB): 31 CPM | 3H Thymidine (CPM Incorporated), (-) Heparin ([1]; 100 nM, 1 ng/ml PDGF-BB): 39 CPM | IC50 ([1]; Papio anubis, 1 ng/ml PDGF-BB, baboon smooth muscle cells, read-out: ED50 for the inhibition of PDGF-BB mitogenic activity): ~25 nM | doses inhibiting PDGF-BB mitogenic activity versus doses required to inhibit PDGF binding to rat SMCs ([1]; baboon SMC mitogenesis vs rat SMC binding, fold lower): 1000 fold | inhibition of [3H] thymidine on addition of heparin (in words) ([1]; with 0.5 U/ml unfractionated heparin, 1 ng/ml PDGF-BB, versus Brefeldin A alone): further inhibition of [^3 H] thymidine above that achieved by Brefeldin A alone | % Control Binding ([2]; 50 μM): 92% | 125I PDGF-BB Bound (CPM) ([2]; 50 μM): 9199 CPM | % Control Binding ([2]; 100 μM): 89% | 125I PDGF-BB Bound (CPM) ([2]; 100 μM): 8879 CPM | bFGF EC50 [3]: No activity | EGF EC50 [4]: No activity

B1: PDGF-BB: platelet derived growth factor (protein, UniProt P01127 82-190, looked up)
Platelet-derived growth …: SLGSLTIAEPAMIAECKTRTEVFEISRRLIDRTNANFLVWPPCVEVQRCSGCCNNRNVQCRPTQVQLRPVQVRKIEIVRKKPIFKKATVTLEDHLACKCETVAAARPVT
3H Thymidine (CPM Incorporated), (-) Heparin ([1]; PDGF-BB standard curve, 0.062 ng/ml): 120 CPM | 3H Thymidine (CPM Incorporated), (-) Heparin ([1]; PDGF-BB standard curve, 0.125 ng/ml): 226 CPM | 3H Thymidine (CPM Incorporated), (-) Heparin ([1]; PDGF-BB standard curve, 0.25 ng/ml): 392 CPM | 3H Thymidine (CPM Incorporated), (-) Heparin ([1]; PDGF-BB standard curve, 0.5 ng/ml, 0 ng/ml gives 74): 959 CPM | 3H Thymidine (CPM Incorporated), (-) Heparin ([1]; PDGF-BB standard curve, 1 ng/ml): 1701 CPM
